Assay results reported in ChEMBL document CHEMBL1135010, “Synthetic studies of cis-4-Amino-L-proline derivatives as novel lipid lowering agents” (2002).
Calls of active or inactive are those of the source. The rule behind the calls is not given here.

Key:
Mus musculus = experiment: Screening was performed to determine its plasma triglyceride lowering activity on administration of 10 mg/kg/day on inbreed colony of Swiss Albino Mice; No significant reduction; format: functional, organism-based
[1] = Screening was performed to determine its plasma triglyceride lowering activity on administration of 30 mg/kg/day dose for 6 days on inbreed colony of Swiss Albino Mice; format: functional, Mus musculus
[2] = Screening was performed to determine its plasma triglyceride lowering activity on administration of 10 mg/kg/day dose for 6 days on inbreed colony of Swiss Albino Mice; format: functional, Mus musculus

Structure (SMILES) | Lowering activity (Mus musculus) | Lowering activity [1] [%] | Lowering activity [2] [%]
CC(C)OC(=O)C(C)(C)Oc1ccc(C(=O)c2ccc(Cl)cc2)cc1 [FENOFIBRATE] | inactive | 36 | –
CCc1nc2ccccc2c(=O)n1CC(=O)N[C@H]1C[C@@H](C(=O)O)N(C(=O)OC(C)(C)C)C1 | – | – | 30
CCCc1nn(C)c2c(=O)n(CC(=O)N[C@H]3C[C@@H](C(=O)OCC)N(C(=O)OC(C)(C)C)C3)c(CC)nc12 | – | – | 40
